Reference: the NIST ThermoML archive (doi:10.1021/je049788h)

Conditions: 101.3 kPa, Liquid; for viscosity: Capillary tube (Ostwald / Ubbelohde) method; for mass density: Vibrating tube method

COCCOCCOCCOCCOC [2,5,8,11,14-pentaoxapentadecane]
Conditions	mass density [kg/m3]	viscosity [mPa·s]
298.15 K	1006.65	3.38
313.15 K	993.28	2.42
323.15 K	984.05	2.004
333.15 K	974.8	1.69
343.15 K	965.55	1.42
